What follows are molecules tested on c-Myc (assay: c-Myc immunofluorescence assay). Conditions: A549 cells, 24 hours, anti-c-Myc immunofluorescence.
Type: cell-based, human
Summary of the method: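 A549 NSCLC cells grown 48 h, then treated 24 h with increasing compound concentrations; fixed in 4% paraformaldehyde, stained with anti-c-Myc antibody plus fluorescent secondary and DAPI. Per-cell c-Myc fluorescence quantified by high-content imaging at 20×; dose-response fitted by logistic regression to give EC50.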
In the case of `COc1ccc(-c2noc(N3CCC(C(=O)NCC4CCN(CC5(C)CCOCC5)C4)CC3)n2)cc1` (stereo not shown) [Compound 377, 1-(3-(4-methoxyphenyl)-1,2,4-oxadiazol-5-yl)-N-((1-((4-methyltetrahydro-2H-pyran-4-yl)methyl)pyrrolidin-3-yl)methyl)piperidine-4-carboxamide], the “Myc Efficacy (−LogEC50)” value is reported as “+ (+ >3 and <5)”. For `C#Cc1ccc(CN2CCC(CNC(=O)C3CCN(c4nc(-c5ccc(OC)cc5)no4)CC3)C2)cc1` (stereo not shown) [Compound 378, N-((1-(4-ethynylbenzyl)pyrrolidin-3-yl)methyl)-1-(3-(4-methoxyphenyl)-1,2,4-oxadiazol-5-yl)piperidine-4-carboxamide], the “Myc Efficacy (−LogEC50)” value was “++ (++ ≥5 and <6)”. In the case of `COc1ccc(-c2noc(N3CCC(C(=O)NCC4CCN(Cc5ccc(C)o5)C4)CC3)n2)cc1` (stereo not shown) [Compound 379, 1-(3-(4-methoxyphenyl)-1,2,4-oxadiazol-5-yl)-N-((1-((5-methylfuran-2-yl)methyl)pyrrolidin-3-yl)methyl)piperidine-4-carboxamide], the “Myc Efficacy (−LogEC50)” value is reported as “++ (++ ≥5 and <6)”. With `COc1ccc(-c2noc(N3CCC(C(=O)NCC4CCN(Cc5cccnc5C)C4)CC3)n2)cc1` (stereo not shown) [Compound 380, 1-(3-(4-methoxyphenyl)-1,2,4-oxadiazol-5-yl)-N-((1-((2-methylpyridin-3-yl)methyl)pyrrolidin-3-yl)methyl)piperidine-4-carboxamide] the “Myc Efficacy (−LogEC50)” value was “++ (++ ≥5 and <6)”. In the case of `COc1ccc(-c2noc(N3CCC(C(=O)NCC4CCN(Cc5sccc5C)C4)CC3)n2)cc1` (stereo not shown) [Compound 381, 1-(3-(4-methoxyphenyl)-1,2,4-oxadiazol-5-yl)-N-((1-((3-methylthiophen-2-yl)methyl)pyrrolidin-3-yl)methyl)piperidine-4-carboxamide], the “Myc Efficacy (−LogEC50)” value is reported as “++ (++ ≥5 and <6)”. `COc1ccc(-c2noc(N3CCC(C(=O)NCC4CCN(Cc5cc(C)co5)C4)CC3)n2)cc1` (stereo not shown) [Compound 382, 1-(3-(4-methoxyphenyl)-1,2,4-oxadiazol-5-yl)-N-((1-((4-methylfuran-2-yl)methyl)pyrrolidin-3-yl)methyl)piperidine-4-carboxamide] was tested, and the “Myc Efficacy (−LogEC50)” value was “++ (++ ≥5 and <6)”. With `COc1ccc(-c2noc(N3CCC(C(=O)NCC4CCN(Cc5csc(C)n5)C4)CC3)n2)cc1` (stereo not shown) [Compound 383, 1-(3-(4-methoxyphenyl)-1,2,4-oxadiazol-5-yl)-N-((1-((2-methylthiazol-4-yl)methyl)pyrrolidin-3-yl)methyl)piperidine-4-carboxamide] the “Myc Efficacy (−LogEC50)” value was “++ (++ ≥5 and <6)”. `COc1ccc(-c2noc(N3CCC(C(=O)NCC4CCN(Cc5nc(C)cs5)C4)CC3)n2)cc1` (stereo not shown) [Compound 384, 1-(3-(4-methoxyphenyl)-1,2,4-oxadiazol-5-yl)-N-((1-((4-methylthiazol-2-yl)methyl)pyrrolidin-3-yl)methyl)piperidine-4-carboxamide] was tested, and the “Myc Efficacy (−LogEC50)” value was “++ (++ ≥5 and <6)”. For `COc1ccc(-c2noc(N3CCC(C(=O)NCC4CCN(Cc5ccc(C)s5)C4)CC3)n2)cc1` (stereo not shown) [Compound 385, 1-(3-(4-methoxyphenyl)-1,2,4-oxadiazol-5-yl)-N-((1-((5-methylthiophen-2-yl)methyl)pyrrolidin-3-yl)methyl)piperidine-4-carboxamide], the “Myc Efficacy (−LogEC50)” value was “++ (++ ≥5 and <6)”. With `CCCN1CCC(CNC(=O)C2CCN(c3nc(-c4ccc(OC)cc4)no3)CC2)C1` (stereo not shown) [Compound 386, 1-(3-(4-methoxyphenyl)-1,2,4-oxadiazol-5-yl)-N-((1-propylpyrrolidin-3-yl)methyl)piperidine-4-carboxamide] the “Myc Efficacy (−LogEC50)” value was “+ (+ >3 and <5)”. In the case of `COc1ccc(-c2noc(N3CCC(C(=O)NCC4CCN(Cc5cccc(C)n5)C4)CC3)n2)cc1` (stereo not shown) [Compound 387, 1-(3-(4-methoxyphenyl)-1,2,4-oxadiazol-5-yl)-N-((1-((6-methylpyridin-2-yl)methyl)pyrrolidin-3-yl)methyl)piperidine-4-carboxamide], the “Myc Efficacy (−LogEC50)” value is reported as “++ (++ ≥5 and <6)”. `COc1ccc(-c2noc(N3CCC(C(=O)NCC4CCN(Cc5cnc(C)s5)C4)CC3)n2)cc1` (stereo not shown) [Compound 388, 1-(3-(4-methoxyphenyl)-1,2,4-oxadiazol-5-yl)-N-((1-((2-methylthiazol-5-yl)methyl)pyrrolidin-3-yl)methyl)piperidine-4-carboxamide] was tested, and the “Myc Efficacy (−LogEC50)” value was “++ (++ ≥5 and <6)”. In the case of `COc1ccc(-c2noc(N3CCC(C(=O)NCC4CCN(Cc5ccc[nH]5)C4)CC3)n2)cc1` (stereo not shown) [Compound 389, N-((1-((1H-pyrrol-2-yl)methyl)pyrrolidin-3-yl)methyl)-1-(3-(4-methoxyphenyl)-1,2,4-oxadiazol-5-yl)piperidine-4-carboxamide], the “Myc Efficacy (−LogEC50)” value is reported as “++ (++ ≥5 and <6)”. With `COc1ccc(-c2noc(N3CCC(C(=O)NCC4CCN(Cc5cccc(O)c5)C4)CC3)n2)cc1` (stereo not shown) [Compound 390, N-((1-(3-hydroxybenzyl)pyrrolidin-3-yl)methyl)-1-(3-(4-methoxyphenyl)-1,2,4-oxadiazol-5-yl)piperidine-4-carboxamide] the “Myc Efficacy (−LogEC50)” value was “++ (++ ≥5 and <6)”. For `COc1ccc(-c2noc(N3CCC(C(=O)NCC4CCN(CC5CCCNCC5)C4)CC3)n2)cc1` (stereo not shown) [Compound 391, N-((1-(azepan-4-ylmethyl)pyrrolidin-3-yl)methyl)-1-(3-(4-methoxyphenyl)-1,2,4-oxadiazol-5-yl)piperidine-4-carboxamide], the “Myc Efficacy (−LogEC50)” value was “+ (+ >3 and <5)”. In the case of `COc1ccc(-c2noc(N3CCC(C(=O)NCC4CCN(C[C@@H]5CCCN5)C4)CC3)n2)cc1` (stereo partly drawn) [Compound 392, 1-(3-(4-methoxyphenyl)-1,2,4-oxadiazol-5-yl)-N-((1-(((S)-pyrrolidin-2-yl)methyl)pyrrolidin-3-yl)methyl)piperidine-4-carboxamide], the “Myc Efficacy (−LogEC50)” value is reported as “+ (+ >3 and <5)”. In the case of `COc1ccc(-c2noc(N3CCC(C(=O)NCC4CCN(CC5CC(F)(F)C5)C4)CC3)n2)cc1` (stereo not shown) [Compound 393, N-((1-((3,3-difluorocyclobutyl)methyl)pyrrolidin-3-yl)methyl)-1-(3-(4-methoxyphenyl)-1,2,4-oxadiazol-5-yl)piperidine-4-carboxamide], the “Myc Efficacy (−LogEC50)” value is reported as “+ (+ >3 and <5)”. In the case of `COc1ccc(-c2noc(N3CCC(C(=O)NCC4CCN(CC5CC(N)C5)C4)CC3)n2)cc1` (stereo not shown) [Compound 394, N-((1-(((1s,3s)-3-aminocyclobutyl)methyl)pyrrolidin-3-yl)methyl)-1-(3-(4-methoxyphenyl)-1,2,4-oxadiazol-5-yl)piperidine-4-carboxamide], the “Myc Efficacy (−LogEC50)” value is reported as “+ (+ >3 and <5)”. In the case of `COc1ccc(-c2noc(N3CCC(C(=O)NCC4CCN(CC5CCO5)C4)CC3)n2)cc1` (stereo not shown) [Compound 395, 1-(3-(4-methoxyphenyl)-1,2,4-oxadiazol-5-yl)-N-((1-(oxetan-2-ylmethyl)pyrrolidin-3-yl)methyl)piperidine-4-carboxamide], the “Myc Efficacy (−LogEC50)” value is reported as “+ (+ >3 and <5)”. With `COc1ccc(-c2noc(N3CCC(C(=O)NCC4CCN(C5CCCOC5)C4)CC3)n2)cc1` (stereo not shown) [Compound 396, 1-(3-(4-methoxyphenyl)-1,2,4-oxadiazol-5-yl)-N-((1-(tetrahydro-2H-pyran-3-yl)pyrrolidin-3-yl)methyl)piperidine-4-carboxamide] the “Myc Efficacy (−LogEC50)” value was “+ (+ >3 and <5)”. In the case of `COc1ccc(-c2noc(N3CCC(C(=O)NCC4CCN(C(C)CO)C4)CC3)n2)cc1` (stereo not shown) [Compound 397, N-((1-(1-hydroxypropan-2-yl)pyrrolidin-3-yl)methyl)-1-(3-(4-methoxyphenyl)-1,2,4-oxadiazol-5-yl)piperidine-4-carboxamide], the “Myc Efficacy (−LogEC50)” value is reported as “− (− ≤3)”. In the case of `COc1ccc(-c2noc(N3CCC(C(=O)NCC4CCN(C5CCOCC5)C4)CC3)n2)cc1` (stereo not shown) [Compound 398, 1-(3-(4-methoxyphenyl)-1,2,4-oxadiazol-5-yl)-N-((1-(tetrahydro-2H-pyran-4-yl)pyrrolidin-3-yl)methyl)piperidine-4-carboxamide], the “Myc Efficacy (−LogEC50)” value is reported as “+ (+ >3 and <5)”. `COc1ccc(-c2noc(N3CCC(C(=O)NCC4CCN(C5CC6(COC6)C5)C4)CC3)n2)cc1` (stereo not shown) [Compound 399, N-((1-(2-oxaspiro[3.3]heptan-6-yl)pyrrolidin-3-yl)methyl)-1-(3-(4-methoxyphenyl)-1,2,4-oxadiazol-5-yl)piperidine-4-carboxamide] was tested, and the “Myc Efficacy (−LogEC50)” value was “+ (+ >3 and <5)”. For `COc1ccc(-c2noc(N3CCC(C(=O)NCC4CCN(C5CCCOCC5)C4)CC3)n2)cc1` (stereo not shown) [Compound 400, 1-(3-(4-methoxyphenyl)-1,2,4-oxadiazol-5-yl)-N-((1-(oxepan-4-yl)pyrrolidin-3-yl)methyl)piperidine-4-carboxamide], the “Myc Efficacy (−LogEC50)” value was “+ (+ >3 and <5)”. `COc1ccc(-c2noc(N3CCC(C(=O)NCC4CCN(C5COC5)C4)CC3)n2)cc1` (stereo not shown) [Compound 401, 1-(3-(4-methoxyphenyl)-1,2,4-oxadiazol-5-yl)-N-((1-(oxetan-3-yl)pyrrolidin-3-yl)methyl)piperidine-4-carboxamide] was tested, and the “Myc Efficacy (−LogEC50)” value was “+ (+ >3 and <5)”. For `COc1ccc(-c2noc(N3CCC(C(=O)NCC4CCN(C5CCOC(C)C5)C4)CC3)n2)cc1` (stereo not shown) [Compound 402, 1-(3-(4-methoxyphenyl)-1,2,4-oxadiazol-5-yl)-N-((1-(2-methyltetrahydro-2H-pyran-4-yl)pyrrolidin-3-yl)methyl)piperidine-4-carboxamide], the “Myc Efficacy (−LogEC50)” value was “+ (+ >3 and <5)”. For `COc1ccc(-c2noc(N3CCC(C(=O)Nc4ccc5c(c4)CCN5C)CC3)n2)cc1` [Compound 403, 1-(3-(4-methoxyphenyl)-1,2,4-oxadiazol-5-yl)-N-(1-methylindolin-5-yl)piperidine-4-carboxamide], the “Myc Efficacy (−LogEC50)” value was “+ (+ >3 and <5)”. In the case of `COc1ccc(-c2noc(N3CCC(C(=O)NCC4CCN(Cc5scnc5C)C4)CC3)n2)cc1` (stereo not shown) [Compound 404, 1-(3-(4-methoxyphenyl)-1,2,4-oxadiazol-5-yl)-N-((1-((4-methylthiazol-5-yl)methyl)pyrrolidin-3-yl)methyl)piperidine-4-carboxamide], the “Myc Efficacy (−LogEC50)” value is reported as “++ (++ ≥5 and <6)”.
